Reference: the supplement of paper PMC10307832

What was measured:
Assay in all cases: relative viability (nuclei count vs DMSO), 5 days (fraction); higher = more cells survive
201T = tested on: 201T
Summary of the method: (§1)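 Lung cancer cell lines were pin-tool dosed in 1536-well plates on the day after seeding, with either a lone drug or a fixed anchor-drug dose plus five library-drug doses (not always all listed) in √10 steps. Nuclei were counted on 4× images after 5 days. Relative viability is the ratio of treated-well to vehicle-well nuclei counts, with each value a median of duplicate plates.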

NCI-H2342 = tested on: NCI-H2342
Summary of the method: as §1

H3255 = tested on: H3255
Summary of the method: as §1

EKVX = tested on: EKVX
Summary of the method: as §1

HCC-44 = tested on: HCC-44
Summary of the method: as §1

EPLC-272H = tested on: EPLC-272H
Summary of the method: as §1

HCC-827 = tested on: HCC-827
Summary of the method: as §1

NCI-H647 = tested on: NCI-H647
Summary of the method: as §1

BEN = tested on: BEN
Summary of the method: as §1

NCI-H1975 = tested on: NCI-H1975
Summary of the method: as §1

NCI-H1666 = tested on: NCI-H1666
Summary of the method: as §1

NCI-H1437 = tested on: NCI-H1437
Summary of the method: as §1

NCI-H650 = tested on: NCI-H650
Summary of the method: as §1

LOU-NH91 = tested on: LOU-NH91
Summary of the method: as §1

LU99A = tested on: LU99A
Summary of the method: as §1

NCI-H2170 = tested on: NCI-H2170
Summary of the method: as §1

NCI-H2085 = tested on: NCI-H2085
Summary of the method: as §1

SW 1573 = tested on: SW 1573
Summary of the method: as §1

COR-L 105 = tested on: COR-L 105
Summary of the method: as §1

LCLC-97TM1 = tested on: LCLC-97TM1
Summary of the method: as §1

NCI-H2087 = tested on: NCI-H2087
Summary of the method: as §1

PC-3 [JPC-3] = tested on: PC-3 [JPC-3]
Summary of the method: as §1

Cc1sc2c(c1C)C(c1ccc(Cl)cc1)=N[C@@H](CC(=O)OC(C)(C)C)c1nnc(C)n1-2 [JQ1] + Nc1nc2[nH]cc(CCc3ccc(C(=O)N[C@@H](CCC(=O)O)C(=O)O)cc3)c2c(=O)[nH]1 [Pemetrexed] (partner 0.2 µM)
relative viability (201T; first compound 0.04 µM): 0.325 | relative viability (201T; first compound 0.4 µM): 0.293 | relative viability (201T; first compound 1.265 µM): 0.274 | relative viability (201T; first compound 4 µM): 0.23 | relative viability (NCI-H2342; first compound 0.04 µM): 0.805 | relative viability (NCI-H2342; first compound 0.1265 µM): 0.73 | relative viability (NCI-H2342; first compound 0.4 µM): 0.852 | relative viability (NCI-H2342; first compound 1.265 µM): 0.781 | relative viability (NCI-H2342; first compound 4 µM): 0.617 | relative viability (H3255; first compound 0.04 µM): 0.569 | relative viability (H3255; first compound 0.1265 µM): 0.515 | relative viability (H3255; first compound 0.4 µM): 0.453 | relative viability (H3255; first compound 1.265 µM): 0.364 | relative viability (H3255; first compound 4 µM): 0.3 | relative viability (EKVX; first compound 0.04 µM): 0.351 | relative viability (EKVX; first compound 0.1265 µM): 0.396 | relative viability (EKVX; first compound 0.4 µM): 0.304 | relative viability (EKVX; first compound 1.265 µM): 0.362 | relative viability (EKVX; first compound 4 µM): 0.264 | relative viability (HCC-44; first compound 0.04 µM): 0.59 | relative viability (HCC-44; first compound 0.1265 µM): 0.617 | relative viability (HCC-44; first compound 0.4 µM): 0.692 | relative viability (HCC-44; first compound 1.265 µM): 0.58 | relative viability (HCC-44; first compound 4 µM): 0.444 | relative viability (EPLC-272H; first compound 0.04 µM): 0.309 | relative viability (EPLC-272H; first compound 0.1265 µM): 0.336 | relative viability (EPLC-272H; first compound 0.4 µM): 0.29 | relative viability (EPLC-272H; first compound 1.265 µM): 0.298 | relative viability (EPLC-272H; first compound 4 µM): 0.317 | relative viability (HCC-827; first compound 0.04 µM): 0.262 | relative viability (HCC-827; first compound 0.1265 µM): 0.255 | relative viability (HCC-827; first compound 1.265 µM): 0.211 | relative viability (HCC-827; first compound 4 µM): 0.247 | relative viability (NCI-H647; first compound 0.04 µM): 0.156 | relative viability (NCI-H647; first compound 0.1265 µM): 0.125 | relative viability (NCI-H647; first compound 0.4 µM): 0.105 | relative viability (NCI-H647; first compound 1.265 µM): 0.0945 | relative viability (NCI-H647; first compound 4 µM): 0.0741 | relative viability (BEN; first compound 0.04 µM): 0.7 | relative viability (BEN; first compound 0.1265 µM): 0.523 | relative viability (BEN; first compound 0.4 µM): 0.67 | relative viability (BEN; first compound 1.265 µM): 0.518 | relative viability (BEN; first compound 4 µM): 0.384 | relative viability (NCI-H1975; first compound 0.04 µM): 0.284 | relative viability (NCI-H1975; first compound 0.1265 µM): 0.233 | relative viability (NCI-H1975; first compound 0.4 µM): 0.234 | relative viability (NCI-H1975; first compound 1.265 µM): 0.19 | relative viability (NCI-H1975; first compound 4 µM): 0.173 | relative viability (NCI-H1666; first compound 0.04 µM): 0.801 | relative viability (NCI-H1666; first compound 0.1265 µM): 0.786 | relative viability (NCI-H1666; first compound 0.4 µM): 0.697 | relative viability (NCI-H1666; first compound 1.265 µM): 0.659 | relative viability (NCI-H1666; first compound 4 µM): 0.602 | relative viability (NCI-H1437; first compound 0.04 µM): 0.303 | relative viability (NCI-H1437; first compound 0.1265 µM): 0.309 | relative viability (NCI-H1437; first compound 0.4 µM): 0.244 | relative viability (NCI-H1437; first compound 1.265 µM): 0.201 | relative viability (NCI-H1437; first compound 4 µM): 0.208 | relative viability (NCI-H650; first compound 0.04 µM): 0.886 | relative viability (NCI-H650; first compound 0.1265 µM): 0.664 | relative viability (NCI-H650; first compound 0.4 µM): 0.839 | relative viability (NCI-H650; first compound 1.265 µM): 0.6 | relative viability (NCI-H650; first compound 4 µM): 0.276 | relative viability (LOU-NH91; first compound 0.04 µM): 0.365 | relative viability (LOU-NH91; first compound 0.1265 µM): 0.387 | relative viability (LOU-NH91; first compound 0.4 µM): 0.354 | relative viability (LOU-NH91; first compound 1.265 µM): 0.334 | relative viability (LOU-NH91; first compound 4 µM): 0.362 | relative viability (LU99A; first compound 0.04 µM): 0.173 | relative viability (LU99A; first compound 0.4 µM): 0.167 | relative viability (LU99A; first compound 1.265 µM): 0.15 | relative viability (LU99A; first compound 4 µM): 0.153 | relative viability (NCI-H2170; first compound 0.04 µM): 0.257 | relative viability (NCI-H2170; first compound 0.1265 µM): 0.263 | relative viability (NCI-H2170; first compound 0.4 µM): 0.248 | relative viability (NCI-H2170; first compound 1.265 µM): 0.238 | relative viability (NCI-H2170; first compound 4 µM): 0.194 | relative viability (NCI-H2085; first compound 0.04 µM): 0.738 | relative viability (NCI-H2085; first compound 0.1265 µM): 0.721 | relative viability (NCI-H2085; first compound 0.4 µM): 0.668 | relative viability (NCI-H2085; first compound 1.265 µM): 0.403 | relative viability (NCI-H2085; first compound 4 µM): 0.374 | relative viability (SW 1573; first compound 0.04 µM): 0.826 | relative viability (SW 1573; first compound 0.1265 µM): 0.789 | relative viability (SW 1573; first compound 0.4 µM): 0.598 | relative viability (SW 1573; first compound 1.265 µM): 0.398 | relative viability (SW 1573; first compound 4 µM): 0.295 | relative viability (COR-L 105; first compound 0.04 µM): 0.818 | relative viability (COR-L 105; first compound 0.1265 µM): 0.566 | relative viability (COR-L 105; first compound 0.4 µM): 0.742 | relative viability (COR-L 105; first compound 1.265 µM): 0.385 | relative viability (COR-L 105; first compound 4 µM): 0.413 | relative viability (LCLC-97TM1; first compound 0.04 µM): 0.168 | relative viability (LCLC-97TM1; first compound 0.1265 µM): 0.199 | relative viability (LCLC-97TM1; first compound 0.4 µM): 0.172 | relative viability (LCLC-97TM1; first compound 1.265 µM): 0.141 | relative viability (LCLC-97TM1; first compound 4 µM): 0.0882 | relative viability (NCI-H2087; first compound 0.04 µM): 0.621 | relative viability (NCI-H2087; first compound 0.1265 µM): 0.675 | relative viability (NCI-H2087; first compound 0.4 µM): 0.692 | relative viability (NCI-H2087; first compound 1.265 µM): 0.558 | relative viability (NCI-H2087; first compound 4 µM): 0.463 | relative viability (PC-3 [JPC-3]; first compound 0.04 µM): 1.16 | relative viability (PC-3 [JPC-3]; first compound 0.1265 µM): 1.12 | relative viability (PC-3 [JPC-3]; first compound 0.4 µM): 0.818 | relative viability (PC-3 [JPC-3]; first compound 1.265 µM): 0.751 | relative viability (PC-3 [JPC-3]; first compound 4 µM): 0.374
